The values below come from patent US12319679B2, “Morpholinyl, piperazinyl, oxazepanyl and diazepanyl O-glycoprotein-2-acetamido-2-deoxy-3-d-glucopyranosidase inhibitors” (BIOGEN MA INC., priority 2018, dated 2025).

Bounds are passed on as bounds.

This test has as its target T1, Recombinant full length human OGA enzyme (Homo sapiens, UniProt O60502).
T1 construct: Recombinant full length human OGA enzyme was purchased from Origene; purchased Origene
T1 sequence (O60502 1-916): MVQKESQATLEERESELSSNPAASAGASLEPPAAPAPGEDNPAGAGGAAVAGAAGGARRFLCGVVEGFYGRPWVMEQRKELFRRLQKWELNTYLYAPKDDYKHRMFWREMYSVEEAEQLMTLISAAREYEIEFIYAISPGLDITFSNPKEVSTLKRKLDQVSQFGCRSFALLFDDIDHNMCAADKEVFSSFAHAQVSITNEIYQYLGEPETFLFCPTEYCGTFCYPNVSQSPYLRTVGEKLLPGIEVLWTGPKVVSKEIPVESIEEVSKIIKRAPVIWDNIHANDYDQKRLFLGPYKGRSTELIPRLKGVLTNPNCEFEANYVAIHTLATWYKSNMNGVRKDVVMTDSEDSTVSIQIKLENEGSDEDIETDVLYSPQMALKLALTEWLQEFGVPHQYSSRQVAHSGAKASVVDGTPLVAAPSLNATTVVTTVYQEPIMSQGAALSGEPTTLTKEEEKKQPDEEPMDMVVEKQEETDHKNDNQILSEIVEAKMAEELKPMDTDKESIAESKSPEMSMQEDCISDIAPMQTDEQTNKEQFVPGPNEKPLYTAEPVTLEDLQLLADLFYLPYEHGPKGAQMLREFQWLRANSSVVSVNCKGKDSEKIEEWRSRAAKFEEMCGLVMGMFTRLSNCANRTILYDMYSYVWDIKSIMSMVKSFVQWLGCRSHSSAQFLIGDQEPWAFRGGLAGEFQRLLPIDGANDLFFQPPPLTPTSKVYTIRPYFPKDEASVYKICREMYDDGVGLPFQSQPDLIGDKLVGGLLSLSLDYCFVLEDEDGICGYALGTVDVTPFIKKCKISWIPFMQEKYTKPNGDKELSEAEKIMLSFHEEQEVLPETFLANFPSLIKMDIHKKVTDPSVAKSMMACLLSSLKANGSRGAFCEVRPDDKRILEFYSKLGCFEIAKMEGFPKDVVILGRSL
Nature of the test: OGA Enzyme Inhibition Biochemical Assay. The note with it: 1 nM OGA, 100 μM 4-MUGlcNAc (Km), pH 6.4, 90 minutes at room temperature; 10-point dose-response starting from 20 μM. How it is done: OGA Enzyme Inhibition Biochemical Assay
Recombinant full length human OGA enzyme was purchased from Origene. 4-MUGlCNAc substrate was purchased from Sigma. All other reagents were purchased from Sigma or Fisher. Assay buffer consists of the McIlvaine buffer system, pH 6.4 (0.2M Na2HPO4 mixed with 0.1M citric acid) and 0.01% BSA. Reactions consist of 1 nM OGA, 100 μM 4-MUGlcNAc (Km), and compound in a final volume of 10 μl. Reactions were incubated for 90 minutes at room temperature and quenched with 40 μl of 3M glycine, pH 10 and read on a Perkin Elmer Envision plate reader (Ex: 355 nm/Em: 460 nm). Compounds were tested with a 10-point dose-response starting from 20 μM with a 4-fold dilution. Data was fit using GraphPad Prism using a 4-paramter fit with variable slope.

The term IC50 denotes the concentration needed to halve the response being measured.

`CC(=O)Nc1ncc(CN2C[C@@H](Cc3ccnc(C)c3)N(C)C[C@@H]2C)s1` [Example 2-2, N-(5-(((2S,5R)-2,4-dimethyl-5-((2-methylpyridin-4-yl)methyl)piperazin-1-yl)methyl)thiazol-2-yl)acetamide]: the IC50 worked out at 9.8 nM.

For the molecule `CCN1C[C@H](C)N(Cc2cnc(NC(C)=O)s2)C[C@H]1Cc1ccnc(C)c1` [Example 2-3, N-(5-(((2S,5R)-4-ethyl-2-methyl-5-((2-methylpyridin-4-yl)methyl)piperazin-1-yl)methyl)thiazol-2-yl)acetamide], the IC50 came out at 26 nM.

As for `CC(=O)Nc1ncc(CN2C[C@@H](Cc3ccnc(C)c3)N(C(C)=O)C[C@@H]2C)s1` [Example 2-4, N-(5-(((2S,5R)-4-acetyl-2-methyl-5-((2-methylpyridin-4-yl)methyl)piperazin-1-yl)methyl)thiazol-2-yl)acetamide], the IC50 stood at 7500 nM.

Consider `CC(=O)Nc1ncc(CN2C[C@@H](Cc3ncc(F)cn3)NC[C@@H]2C)s1` [Example 2-5], for which the IC50 came to 19 nM.

As to `CC(=O)Nc1ncc(CN2C[C@@H](Cc3ncc(F)cn3)N(C)C[C@@H]2C)s1` [Example 2-6, N-(5-(((2S,5R)-5-((5-fluoropyrimidin-2-yl)methyl)-2,4-dimethylpiperazin-1-yl)methyl)thiazol-2-yl)acetamide], the concentration for half-maximal inhibition (IC50) worked out at 17 nM.

Take `CC(=O)Nc1ncc(CN2C[C@@H](Cc3ncc(F)cn3)N(C(C)=O)C[C@@H]2C)s1` [Example 2-7, N-(5-(((2S,5R)-4-acetyl-5-((5-fluoropyrimidin-2-yl)methyl)-2-methylpiperazin-1-yl)methyl)thiazol-2-yl)acetamide]: the IC50 came out at 9600 nM.

On to `CC(=O)Nc1ncc(CN2C[C@@H](Cc3cc(C)nc(C)c3)NC[C@@H]2C)s1` [Example 2-8, N-(5-(((2S,5R)-5-((2,6-dimethylpyridin-4-yl)methyl)-2-methylpiperazin-1-yl)methyl)thiazol-2-yl)acetamide], for which the IC50 was 9.1 nM.

As to `CC(=O)Nc1ncc(CN2C[C@@H](Cc3ccc(C)nc3)NC[C@@H]2C)s1` [Example 2-9, N-(5-(((2S,5R)-2-methyl-5-((6-methylpyridin-3-yl)methyl)piperazin-1-yl)methyl)thiazol-2-yl)acetamide], the IC50 was found to be 45 nM.

For the molecule `CC(=O)Nc1ncc(CN2C[C@@H](Cc3cc(C)nc(C)c3)N(C)C[C@@H]2C)s1` [Example 2-10], the IC50 was found to be 34 nM.

Turning to `CC(=O)Nc1ncc(CN2C[C@@H](Cc3ccc(C)nc3)N(C)C[C@@H]2C)s1` [Example 2-11, N-(5-(((2S,5R)-2,4-dimethyl-5-((6-methylpyridin-3-yl)methyl)piperazin-1-yl)methyl)thiazol-2-yl)acetamide], the IC50 is 45 nM.

As for `CCN1C[C@H](C)N(Cc2cnc(NC(C)=O)s2)C[C@H]1Cc1ccc(C)nc1` [Example 2-12, N-(5-(((2S,5R)-4-ethyl-2-methyl-5-((6-methylpyridin-3-yl)methyl)piperazin-1-yl)methyl)thiazol-2-yl)acetamide], the IC50 was found to be 180 nM.

Regarding `CC(=O)Nc1ncc(CN2C[C@@H](Cc3cc(C)nc(C)n3)NC[C@@H]2C)s1` [Example 2-13], the IC50 was determined as 22 nM.

On to `COc1cc(C[C@@H]2CN(Cc3cnc(NC(C)=O)s3)[C@@H](C)CN2)ccn1` [Example 2-14, N-(5-(((2S,5R)-5-((2-methoxypyridin-4-yl)methyl)-2-methylpiperazin-1-yl)methyl)thiazol-2-yl)acetamide], for which the IC50 came out at 7.5 nM.

`CC(=O)Nc1ncc(CN2C[C@@H](Cc3cc(C)nc(C)c3)N(C(C)=O)C[C@@H]2C)s1` [Example 2-15, N-(5-(((2S,5R)-4-acetyl-5-((2,6-dimethylpyridin-4-yl)methyl)-2-methylpiperazin-1-yl)methyl)thiazol-2-yl)acetamide]: the IC50 is 5900 nM.

Regarding `CC(=O)Nc1ncc(CN2C[C@@H](Cc3cc(C)nc(C)n3)N(C)C[C@@H]2C)s1` [Example 2-17], the IC50 is 41 nM.

On to `COc1cc(C[C@@H]2CN(Cc3cnc(NC(C)=O)s3)[C@@H](C)CN2C)ccn1` [Example 2-18], for which the IC50 was 4.9 nM.

For the molecule `CC(=O)Nc1ncc(CN2CCCNC(Cc3ncc(F)cn3)C2)s1` (stereo not shown) [Example 2-23, N-(5-((3-((5-fluoropyrimidin-2-yl)methyl)-1,4-diazepan-1-yl)methyl)thiazol-2-yl)acetamide], the IC50 stood at 5600 nM.

In the case of `CC(=O)Nc1ncc(CN2CCCN(C)C(Cc3ncc(F)cn3)C2)s1` (stereo not shown) [Example 2-24, N-(5-((3-((5-fluoropyrimidin-2-yl)methyl)-4-methyl-1,4-diazepan-1-yl)methyl)thiazol-2-yl)acetamide], the IC50 was 12000 nM.

`COc1cc(CC2CN(Cc3cnc(NC(C)=O)s3)CCCN2)ccn1` (stereo not shown) [Example 2-25, N-(5-((3-((2-methoxypyridin-4-yl)methyl)-1,4-diazepan-1-yl)methyl)thiazol-2-yl)acetamide]: the IC50 is above 20000 nM.

As to `COc1cc(CC2CN(Cc3cnc(NC(C)=O)s3)CCCN2C(C)=O)ccn1` (stereo not shown) [Example 2-26, N-(5-((4-acetyl-3-((2-methoxypyridin-4-yl)methyl)-1,4-diazepan-1-yl)methyl)thiazol-2-yl)acetamide], the IC50 was above 20000 nM.

In the case of `CC(=O)Nc1ncc(CN2CCCNC(Cc3ccnc(C)c3)C2)s1` (stereo not shown) [Example 2-27, N-(5-((3-((2-methylpyridin-4-yl)methyl)-1,4-diazepan-1-yl)methyl)thiazol-2-yl)acetamide], the IC50 was determined as 9900 nM.

On to `CC(=O)Nc1ncc(CN2CCCNC(Cc3cc(C)nc(C)c3)C2)s1` (stereo not shown) [Example 2-28, N-(5-((3-((2,6-dimethylpyridin-4-yl)methyl)-1,4-diazepan-1-yl)methyl)thiazol-2-yl)acetamide], for which the IC50 worked out at 12000 nM.

In the case of `CC(=O)Nc1ncc(CN2CCCN(C(C)=O)C(Cc3cc(C)nc(C)c3)C2)s1` (stereo not shown) [Example 2-29, N-(5-((4-acetyl-3-((2,6-dimethylpyridin-4-yl)methyl)-1,4-diazepan-1-yl)methyl)thiazol-2-yl)acetamide], the IC50 was above 20000 nM.

Take `CC(=O)Nc1ncc(CN2C[C@@H](COc3cc(C)nc(C)c3)NC[C@@H]2C)s1` [Example 3-1, N-(5-(((2S,5S)-5-(((2,6-dimethylpyridin-4-yl)oxy)methyl)-2-methylpiperazin-1-yl)methyl)thiazol-2-yl)acetamide]: the IC50 is 21 nM.

Turning to `CC(=O)Nc1ncc(CN2C[C@@H](COc3cc(C)nc(C)c3)N(C)C[C@@H]2C)s1` [Example 3-2, N-(5-(((2S,5S)-5-(((2,6-dimethylpyridin-4-yl)oxy)methyl)-2,4-dimethylpiperazin-1-yl)methyl)thiazol-2-yl)acetamide], the IC50 worked out at 38 nM.

Turning to `CC(=O)Nc1ncc(CN2C[C@@H](COc3cc(C)nc(C)c3)N(C(C)=O)C[C@@H]2C)s1` [Example 3-3], the IC50 was determined as 11000 nM.

Take `CC(=O)Nc1ncc(CN2C[C@@H](COc3cc(C)nc(C)c3)OC[C@@H]2C)s1` [Example 3-4, N-(5-(((2S,5S)-2-(((2,6-dimethylpyridin-4-yl)oxy)methyl)-5 methylmorpholino)methyl)thiazol-2-yl)acetamide]: the IC50 was determined as 17 nM.

Take `CC(=O)Nc1ncc(CN2CCN(C)CC(COc3ncc(F)cn3)C2)s1` (stereo not shown) [Example 3-5, N-(5-((6-(((5-fluoropyrimidin-2-yl)oxy)methyl)-4-methyl-1,4-diazepan-1-yl)methyl)thiazol-2-yl)acetamide]: the IC50 was above 20000 nM.
